Experimental data reported in paper PMC12027946, “Ionic and Non-Ionic Counterparts Based on Bis(Uracilyl)Alkane Moiety with Highest Selectivity Towards Acetylcholinesterase for Protection Against Organophosphate Poisoning and Treating Alzheimer’s Disease” (International Journal of Molecular Sciences, 2025).
“And” between values parts separate entries of the source, which are not always exact repeats. Equal values may be shown once. Read-outs that look alike come from different tables or passages of the source.

What was measured:
[1] = Acute toxicity, single i.p. injection; conditions: CD-1, mouse, in vivo, ip, mice
Protocol: Toxicological experiments were performed using a single i.p. injection of the tested compounds in CD-1 mice weighing 20–25 g. Stock solutions of the tested compounds were diluted in ethanol or water. The final ethanol dose was 100 mg/kg. Nine different doses of the tested compounds were used with 12 mice per dose. Animals were observed 7 days after injection, and symptoms of toxicity were recorded.

mice [2] = experiment: Rotarod test; assay type: in vivo; conditions: 2b 0.01 mg/kg i.p.; control 173 ± 21 s, p = 0.125
Protocol: (§1) The ability of effective doses of bisuracil 2b (0.01 mg/kg) and bisuracil 3c (5 mg/kg) to induce incapacitation was evaluated. Locomotor activity, measured as the total distance travelled, and exploratory behaviour, assessed by the number of rearings (head inclinations) and head dips, were evaluated using the open-field test. Additionally, motor coordination was analysed using the rotarod test, where the ability of mice to stay on the rotating rod was recorded. The compounds were administered i.p. 30 min before testing, while the control group received an equivalent volume of the vehicle.
To analyse motor function, rotarod and open-field tests were carried out. Mice were randomly divided into 3 groups (n = 12): a control group of mice and groups of mice treated with tested compounds. Tests were conducted 1 h after compound exposure. To assess motor function, mice were first placed on a rotarod treadmill (Ugo Basile, Italy). Rotation speed was fixed at 15 rpm, and the time that each mouse remained on the rod was recorded as the score, with a maximum duration of 300 s per trial. Each mouse underwent 3 trials. […] To assess motor function, the distance travelled in centimetres in the arena was measured, using VideoMot2 software (Version 8.02 (131) 03-07-17 (TSE Systems, Bad Homburg, Germany).

human AChE [3] = target: T1, human AChE (Homo sapiens, UniProt P22303); experiment: In vitro cholinesterase inhibition (Ellman), AChE; assay type: biochemical
T1 construct: purchased Sigma-Aldrich
Protocol: (§2) Inhibitory activities of the tested compounds against AChE and BChE were measured according to Ellman et al.. Enzyme-catalysed hydrolysis of ATCHh was carried out at 25 °C in 0.1 M phosphate buffer (pH 8.0) containing 0.25 U AChE, 1 mM ATCHh as substrates, and 0.1 mM of DTNB. In experiments with BuChE, 0.1 M phosphate buffer (pH 7.0) and BuTChh as a substrate were used. The tested compounds were pre-incubated with the enzyme for two minutes prior to the addition of the substrate and the subsequent recording of hydrolysis kinetics. […] A sample without an inhibitor was used as a control (100% cholinesterase activity). A sample without a substrate was used as a blank. Experiments were performed in triplicate.

[4] = test system: mice poisoned with 2×LD50 of POX; experiment: Protection against POX toxicity (pre-treatment); assay type: in vivo; conditions: for n/N (mice surviving 5 days after POX poisoning / total): atropine 15 mg/kg i.p. 1 min after POX
Protocol: The concept of using reversible AChE inhibition as a preventive strategy to enhance the efficacy of traditional antidotes in OP poisoning is a well-established principle. This study explores the potential of bisuracil 2b as a preventive agent to protect AChE from irreversible inhibition caused by paraoxon (POX), a model OP. […] Following POX administration, the standard antidote atropine was given at a dose of 15 mg/kg within one minute. […] Increasing the dose of bisuracil 2b reduced the protective effect in POX poisoned animals (Table 3).
We also estimated the relative risk of death (RRD) as a function of precocity (from min to hours) over a period of 10 h by Cox survival analysis. Statistical differences in the number of surviving animals between experimental groups were tested using the Cox–Mantel multisample logarithmic rank criterion. It was shown that, in mice exposed to 0.42 mg/kg of POX, RRD = 1 (Figure 5). However, in animals that received atropine within 1 min after poisoning, POX-induced mortality was lower (RRD = 0.5; Figure 5).
The tested compound was administered via i.p. before POX injection.

human BuChE = target: T2, human BuChE (Homo sapiens, UniProt P06276); experiment: Inhibition constants (Dixon and Cornish–Bowden plots), BuChE; assay type: biochemical
T2 construct: butyrylcholiesterase from human plasma; purchased Sigma-Aldrich; host or cells: human plasma
Protocol: (§3) Experiments were performed using four different concentrations of ATCh as a substrate for AChE, and with BuTCh as a substrate for BuChE. According to the analysis of Dixon and Cornish–Bowden plots for bisuracil 2b, AChE and BuChE inhibition is of a mixed type characterised both by competitive inhibition (Kci) and uncompetitive inhibition (Kui) components. For AChE, Kci was determined to be 55.7 ± 8.1 pM while Kui = 156 ± 18 pM (Figure 3A,B), and Kci = 0.13 ± 0.02 mM while Kui = 0.7 ± 0.06 mM for BuChE (Figure 3C,D). Inhibition of AChE and BuChE by bisuracil 3c was of a mixed type. For the AChE constant, Kci was 0.7 ± 0.04 nM while Kui 4.45 ± 1.76 nM (Figure 4A,B); for the BuChE constant, Kci = 0.04 ± 0.007 мM while Kui = 0.68 ± 0.08 мM (Figure 4C,D).
(§4) A UV-1800 Shimadzu (Shimadzu Co., Kyoto, Japan) spectrophotometer was utilised to conduct the measurements. The final enzyme concentration in the assays was in the picomolar range. In order to ascertain the levels of spontaneous hydrolysis of the enzyme and substrate in the absence of an inhibitor, controls were performed for each substrate concentration. The change in absorption was then recorded over a period of three minutes. The inhibition constants were determined from a Dixon plot and Cornish–Bowden transformation.

mice [5] = experiment: Open-field test; assay type: in vivo; conditions: 2b 0.01 mg/kg, 3c 5 mg/kg, i.p.
Protocol: as §1
To analyse motor function, rotarod and open-field tests were carried out. Mice were randomly divided into 3 groups (n = 12): a control group of mice and groups of mice treated with tested compounds. Tests were conducted 1 h after compound exposure. To assess motor function, mice were first placed on a rotarod treadmill (Ugo Basile, Italy). Rotation speed was fixed at 15 rpm, and the time that each mouse remained on the rod was recorded as the score, with a maximum duration of 300 s per trial. Each mouse underwent 3 trials. After recording the length of time that mice managed to remain on the rotarod (latency to fall), the average of three trials was used for further analysis. Following the rotarod test, motor function was studied in an open field apparatus (Open Science, Krasnogorsk, Russia), as described in [39]. The numbers of rearing and head dips were estimated as indexes of exploratory activity. To assess motor function, the distance travelled in centimetres in the arena was measured, using VideoMot2 software (Version 8.02 (131) 03-07-17 (TSE Systems, Bad Homburg, Germany).

BChE from human plasma = target: T3, BChE from human plasma (Homo sapiens, UniProt P06276); experiment: In vitro cholinesterase inhibition (Ellman), BuChE; assay type: biochemical
T3 construct: butyrylcholiesterase from human plasma; purchased Sigma-Aldrich; host or cells: human plasma
Protocol: as §2

human AChE [6] = target: T1, human AChE; experiment: Inhibition constants (Dixon and Cornish–Bowden plots), AChE; assay type: biochemical
Protocol: as §3, §4

T1 sequence (P22303 32-614): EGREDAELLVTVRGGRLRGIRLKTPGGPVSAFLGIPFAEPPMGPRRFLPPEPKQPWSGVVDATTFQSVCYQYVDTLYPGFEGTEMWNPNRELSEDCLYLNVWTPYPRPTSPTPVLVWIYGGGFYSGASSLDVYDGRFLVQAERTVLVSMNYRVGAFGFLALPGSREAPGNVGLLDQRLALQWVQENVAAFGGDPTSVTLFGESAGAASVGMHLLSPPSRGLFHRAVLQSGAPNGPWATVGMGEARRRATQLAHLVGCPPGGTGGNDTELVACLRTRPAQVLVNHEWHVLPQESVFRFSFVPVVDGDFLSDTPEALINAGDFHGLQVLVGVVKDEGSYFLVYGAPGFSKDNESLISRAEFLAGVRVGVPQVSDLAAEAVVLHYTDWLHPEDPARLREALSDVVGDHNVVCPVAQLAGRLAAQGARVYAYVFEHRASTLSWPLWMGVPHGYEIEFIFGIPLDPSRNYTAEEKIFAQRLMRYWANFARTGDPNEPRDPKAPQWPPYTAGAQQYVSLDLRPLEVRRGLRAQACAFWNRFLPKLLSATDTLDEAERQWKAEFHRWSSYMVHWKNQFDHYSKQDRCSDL
T2 sequence (P06276 29-602): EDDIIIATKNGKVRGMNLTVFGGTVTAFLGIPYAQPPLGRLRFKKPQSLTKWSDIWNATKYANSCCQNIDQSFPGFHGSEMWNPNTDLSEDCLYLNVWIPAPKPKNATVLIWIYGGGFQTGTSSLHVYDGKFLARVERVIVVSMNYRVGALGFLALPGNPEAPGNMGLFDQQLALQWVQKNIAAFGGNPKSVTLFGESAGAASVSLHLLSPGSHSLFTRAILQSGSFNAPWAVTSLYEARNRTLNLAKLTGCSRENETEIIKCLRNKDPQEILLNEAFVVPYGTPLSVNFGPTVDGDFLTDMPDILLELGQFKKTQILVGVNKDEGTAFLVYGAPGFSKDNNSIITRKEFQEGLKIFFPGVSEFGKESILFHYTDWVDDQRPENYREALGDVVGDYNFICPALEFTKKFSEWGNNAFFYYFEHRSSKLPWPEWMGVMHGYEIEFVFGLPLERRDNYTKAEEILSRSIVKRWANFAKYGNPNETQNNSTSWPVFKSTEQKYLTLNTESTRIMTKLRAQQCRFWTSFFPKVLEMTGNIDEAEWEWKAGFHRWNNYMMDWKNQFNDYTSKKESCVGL
T3 sequence (P06276 29-602): as above

With CC[N+](CC)(CCCCCn1c(=O)ccn(CCCCn2c(C)cc(=O)n(C)c2=O)c1=O)Cc1ccccc1C#N [2b, 1,4-{(3,6-Dimethyluracil-1-yl)-[3-(5-o-nitrilebenzyl(diethyl)ammonio)pentyl)-uracil-1-yl]}butane bromide] the LD50 at 7 days ([1]; observed 7 days, read-out: LD50 (median lethal dose)) was 5.16 mg/kg, the LD50 at 7 days ([1]; read-out: LD50 95% confidence limits) was 3.68 to 6.94 mg/kg and the “mean fall time (rotarod)” value (mice [2]) was 124 ± 20 s. For the same compound, the IC50 (human AChE [3]; AChE IC50, as printed in text and Figure 9) was 0.0649 nM, the IC50 (human AChE [3]; IC50 AChE, Table 1, recombinant human AChE, 25 °C, pH 8.0) was 0.06 ± 0.003 nM and the “n/N (mice surviving 5 days after POX poisoning / total)” value ([4]; 2b 0.005 mg/kg i.p. 30 min before POX 0.42 mg/kg i.p.) was 8/12. The “n/N (mice surviving 5 days after POX poisoning / total)” value ([4]; 2b 0.01 mg/kg i.p. 30 min before POX 0.42 mg/kg i.p.) was 10 out of 12 and 10/12, the “relative risk of death (RRD) vs poisoned group treated only with atropine” value ([4]; 2b 0.01 mg/kg pre-treatment, p = 0.02) was “significantly decreased” and the “n/N (mice surviving 5 days after POX poisoning / total)” value ([4]; 2b 0.05 mg/kg i.p. 30 min before POX 0.42 mg/kg i.p.) was 7/12. The “n/N (mice surviving 5 days after POX poisoning / total)” value ([4]; 2b 0.1 mg/kg i.p. 30 min before POX 0.42 mg/kg i.p.) was 5/12, the “n/N (mice surviving 5 days after POX poisoning / total)” value ([4]; 2b 0.5 mg/kg i.p. 30 min before POX 0.42 mg/kg i.p.) was 4/12 and the “n/N (mice surviving 5 days after POX poisoning / total)” value ([4]; 2b 1 mg/kg i.p. 30 min before POX 0.42 mg/kg i.p.) was 4/12. For the same compound, the “relative risk of death (RRD)” value ([4]; 2b doses above 0.01 mg/kg) was “did not result in a reduction”, the Ki (human BuChE) was 130000 ± 20000 nM and the “Kui (uncompetitive inhibition constant), BuChE” value (human BuChE; BuTCh as substrate) was 0.7 ± 0.06 mM. The “type of BuChE inhibition” value (human BuChE; Dixon and Cornish–Bowden plots) was “mixed type”, the “distance travelled (open field) vs control group” value (mice [5]) was “no significant differences” and the “number of rearings or head dips (open field)” value (mice [5]) was “neither of the tested compounds significantly influenced”. For the same compound, the IC50 (BChE from human plasma) was 219000 ± 50000 nM, the Ki (human AChE [6]) was 0.0557 ± 0.0081 nM and the “Kui (uncompetitive inhibition constant), AChE” value (human AChE [6]; ATCh as substrate) was 156 ± 18 pM. The “type of AChE inhibition” value (human AChE [6]; Dixon and Cornish–Bowden plots) was “mixed type”.
